Columns and labels:
Assay type in all cases: binding
[1] = ITC titration with D-glucose
Experimental: (§1) ITC experiments were carried out at 298 K. Saccharide solutions were prepared in HPLC-grade water with 10 mM phosphate buffer solution (pH 7.4) and allowed to equilibrate overnight if necessary. The sample cell was charged with a known concentration of receptor solution in HPLC-grade water with 10 mM phosphate buffer solution at pH 7.4 (typically 50 µM - 200 µM). Then, aliquots (typically 1.0 µL) of carbohydrate solution were added and the evolution of heat was followed as a function of time. Heats of dilution were measured by injecting the same carbohydrate solution into HPLC-grade water with 10 mM phosphate buffer solution at pH 7.4, using identical conditions. For every addition, the heat of dilution was subtracted from the heat of binding using a MicroCal software programme implemented in ORIGIN 7.0. This gave an XY matrix of heat vs. total guest concentration. This matrix was then imported into a specially written Excel programme to fit the data to a 1:1 binding model to give a Ka. ΔG can be derived from Ka and thus ΔS can be derived from ΔH and ΔG using common thermodynamic equations. […] This method consistently produced more accurate fits than fitting the data to an S-curve, as in the MicroCal software (S-curves are typically not observed for binding constants below ~104 - 105 M^-1).

[2] = ITC titration with D-xylose; details: 10 mM phosphate buffer pH 7.4, 298 K
Experimental: (§2) Isothermal Titration (Micro)Calorimetry (ITC) experiments were performed on a MicroCal iTC200 microcalorimeter and/or a MicroCali VP-ITC. ITC experiments were carried out at 298 K. Saccharide solutions were prepared in HPLC-grade water and allowed to equilibrate overnight if necessary. The sample cell was charged with a known concentration of receptor solution in HPLC-grade water (typically 50 µM - 200 µM). Then, aliquots (typically 1.0 µL) of carbohydrate solution were added and the evolution of heat was followed as a function of time. Heats of dilution were measured by injecting the same carbohydrate solution into HPLC-grade water, using identical conditions. For every addition, the heat of dilution was subtracted from the heat of binding using a MicroCal software programme implemented in ORIGIN 7.0. This gave an XY matrix of heat vs. total guest concentration. This matrix was then imported into a specially written Excel programme to fit the data to a 1:1 binding model to give a Ka. ΔG can be derived from Ka, and ΔS can be derived from ΔH and ΔG using common thermodynamic equations. This method of analysis was used in conjunction with fits for Ka calculated using the MicroCal software to corroborate the results obtained.
(§3) Isothermal Titration MicroCalorimetry (ITC) experiments were performed on a MicroCal iTC200 microcalorimeter and/or a MicroCali VP-ITC. ITC experiments were carried out at 298 K. Saccharide solutions were prepared in HPLC-grade water with 10 mM phosphate buffer solution (pH 7.4) and allowed to equilibrate overnight if necessary. The sample cell was charged with a known concentration of receptor solution in HPLC-grade water with 10 mM phosphate buffer solution at pH 7.4 (typically 50 µM - 200 µM). Then, aliquots (typically 1.0 µL) of carbohydrate solution were added and the evolution of heat was followed as a function of time. Heats of dilution were measured by injecting the same carbohydrate solution into HPLC-grade water with 10 mM phosphate buffer solution at pH 7.4, using identical conditions. […]

[3] = ITC titration with N-acetyl-D-glucosamine; details: 10 mM phosphate buffer pH 7.4, 298 K
Experimental: (§4) ITC experiments were carried out at 298 K. Saccharide solutions were prepared in HPLC-grade water with 10 mM phosphate buffer solution (pH 7.4) and allowed to equilibrate overnight if necessary. The sample cell was charged with a known concentration of receptor solution in HPLC-grade water with 10 mM phosphate buffer solution at pH 7.4 (typically 50 µM - 200 µM). Then, aliquots (typically 1.0 µL) of carbohydrate solution were added and the evolution of heat was followed as a function of time. Heats of dilution were measured by injecting the same carbohydrate solution into HPLC-grade water with 10 mM phosphate buffer solution at pH 7.4, using identical conditions. For every addition, the heat of dilution was subtracted from the heat of binding using a MicroCal software programme implemented in ORIGIN 7.0. This gave an XY matrix of heat vs. total guest concentration. This matrix was then imported into a specially written Excel programme to fit the data to a 1:1 binding model to give a Ka. ΔG can be derived from Ka and thus ΔS can be derived from ΔH and ΔG using common thermodynamic equations.

[4] = ITC titration with D-cellobiose
Experimental: as §1

[5] = ITC titration with D-glucuronic acid; details: 10 mM phosphate buffer pH 7.4, 298 K
Experimental: as §2, §3

[6] = ITC titration with myo-inositol; details: 10 mM phosphate buffer pH 7.4, 298 K
Experimental: as §4

[7] = 1H NMR titration with 2-deoxy-D-glucose; details: D2O, 10 mM phosphate buffer pH 7.4, 298 K
Experimental: (§5) ^1H-NMR titrations were performed on a Varian VNMR cryogenically cooled S600 spectrometer. Solutions of saccharides in D2O (99.9%), containing receptor at a known concentration to be used in the experiment, were prepared and allowed to equilibrate overnight before use if necessary. Aliquots were then added to an NMR tube containing a known concentration of receptor solution (typically 100 µM - 400 µM). The receptor concentration was therefore held constant while the carbohydrate concentration was increased. The sample tube was shaken after each addition and ^1H-NMR spectra were acquired at 298 K.
(§6) ^1H-NMR titrations were performed on a Varian VNMR cryogenically cooled S600 spectrometer. Solutions of saccharides in D2O (99.9%), containing receptor at a known concentration to be used in the experiment, were prepared and allowed to equilibrate overnight before use if necessary. Aliquots were then added to an NMR tube containing a known concentration of receptor solution (typically 50 µM - 250 µM). The receptor concentration was therefore held constant while the carbohydrate concentration was increased. […]
(§7) If the receptor bound saccharide slower than the NMR sample rate (“slow exchange”), the Ka was determined by analysing the NMR integral of a peak assigned to the Host-Guest complex. […] An estimated error for Ka was obtained from individual data points by assuming the determined Ka and Xlim.

[8] = ITC titration with methyl β-D-glucoside
Experimental: as §1

[9] = ITC titration with D-maltose; details: 10 mM phosphate buffer pH 7.4, 298 K
Experimental: (§8) Isothermal Titration (Micro)Calorimetry (ITC) experiments were performed on a MicroCal iTC200 microcalorimeter and/or a MicroCali VP-ITC. ITC experiments were carried out at 298 K. Saccharide solutions were prepared in HPLC-grade water and allowed to equilibrate overnight if necessary. The sample cell was charged with a known concentration of receptor solution in HPLC-grade water (typically 50 µM - 200 µM). Then, aliquots (typically 1.0 µL) of carbohydrate solution were added and the evolution of heat was followed as a function of time. Heats of dilution were measured by injecting the same carbohydrate solution into HPLC-grade water, using identical conditions. For every addition, the heat of dilution was subtracted from the heat of binding using a MicroCal software programme implemented in ORIGIN 7.0. This gave an XY matrix of heat vs. total guest concentration. […] This method of analysis was used in conjunction with fits for Ka calculated using the MicroCal software to corroborate the results obtained.
(§9) Isothermal Titration MicroCalorimetry (ITC) experiments were performed on a MicroCal iTC200 microcalorimeter and/or a MicroCali VP-ITC. […] Heats of dilution were measured by injecting the same carbohydrate solution into HPLC-grade water with 10 mM phosphate buffer solution at pH 7.4, using identical conditions. […]

[10] = ITC titration with D-fructose; details: 10 mM phosphate buffer pH 7.4, 298 K
Experimental: as §1

[11] = 1H NMR ROESY of receptor with D-glucose; details: receptor 2 mM with D-glucose 5 mM (2.5 equivalents) in D2O
From the text: Chemical exchange peaks (black, annotated) link CH protons on β-D-glucose in free and bound states. Signals for bound α-D-glucose were not observed under these conditions.

[12] = 1H NMR titration with D-glucose
Experimental: as §5
^1H-NMR titrations were performed on a Varian VNMR cryogenically cooled S600 spectrometer. Solutions of saccharides in D2O (99.9%), containing receptor at a known concentration to be used in the experiment, were prepared and allowed to equilibrate overnight before use if necessary. Aliquots were then added to an NMR tube containing a known concentration of receptor solution (typically 50 µM - 250 µM). The receptor concentration was therefore held constant while the carbohydrate concentration was increased. The sample tube was shaken after each addition, centrifuged and ^1H-NMR spectra were acquired at 298 K.
If the receptor bound saccharide slower than the NMR sample rate (“slow exchange”), the Ka was determined by analysing the NMR integral of a peak assigned to the Host-Guest complex. The variable X was defined as the integral of an isolated resonance of the complex (typically in the aromatic region) divided by the integral of all the related resonances (typically the whole aromatic region). As X is proportional to fraction of host in the bound state, the change in X could be plotted as a function of the guest concentration to give a curve which could be fitted to a 1:1 binding model to yield the association constant Ka. Mathematically, the fitting process is essentially identical to that employed for binding with fast exchange, except that the integral of a peak due to the complex replaces the chemical shift of a peak due to bound + unbound receptor. The calculation was performed using a non-linear least squares curve-fitting programme implemented within Excel. The programme yields binding constants Ka and limiting X (Xlim) as output. An estimated error for Ka was obtained from individual data points by assuming the determined Ka and Xlim.

[13] = ITC titration with 2-deoxy-D-glucose
Experimental: as §1

[14] = ITC titration with D-ribose; details: 10 mM phosphate buffer pH 7.4, 298 K
Experimental: as §2, §3

[15] = ITC titration with paracetamol; details: 10 mM phosphate buffer pH 7.4, 298 K
Experimental: as §8, §9

[16] = ITC titration with ascorbic acid; details: 10 mM phosphate buffer pH 7.4, 298 K
Experimental: as §8, §9

[17] = 1H NMR titration with D-cellobiose; details: [Host]total 110 µM
From the text: The integrals of the peak at 8.02 ppm (denoted with •, see FIG. 31) were made relative to integral of the same peak (8.02 ppm) when all receptor is assumed to be saturated with guest (i.e. the final addition in the titration, row denoted with yellow). These relative integrals are then used to determine the amount of Host-Guest [HG]. This value for [HG] along with calculated values for free host [H]free and free guest [G]free can be used to calculate the Ka at each point in the titration. […] Not all Ka values calculated were included in the averaged Ka value. The earlier integrations are unreliable due to the very small intensity of the peak at 8.02 ppm. The later integrations were also deemed unreliable due to large deviations in baseline of the spectra due to the large excess of guest present. The selected values for Ka used for the average calculation and the averaged Ka itself corroborate with the results obtained from ITC.

[18] = ITC titration with L-tryptophan; details: 10 mM phosphate buffer pH 7.4, 298 K
Experimental: as §8, §9

[19] = ITC titration with uric acid; details: Uric Acid (PBS) pH 7.4, 298 K
Experimental: as §8, §9

[20] = ITC titration with D-mannitol; details: 10 mM phosphate buffer pH 7.4, 298 K
Experimental: as §4

[21] = ITC titration with L-phenylalanine; details: 10 mM phosphate buffer pH 7.4, 298 K
Experimental: as §8, §9

[22] = ITC titration with cytosine; details: 10 mM phosphate buffer pH 7.4, 298 K
Experimental: as §8, §9

[23] = 1H NMR titration with myo-inositol; details: D2O, 10 mM phosphate buffer pH 7.4, 298 K
Experimental: as §5, §6, §7

[24] = ITC titration with D-galactose; details: 10 mM phosphate buffer pH 7.4, 298 K
Experimental: as §2, §3

[25] = ITC titration with methyl α-D-glucoside; details: 10 mM phosphate buffer pH 7.4, 298 K
Experimental: as §4

[26] = ITC titration with L-fucose; details: 10 mM phosphate buffer pH 7.4, 298 K
Experimental: as §8, §9

[27] = ITC titration with adenosine; details: 10 mM phosphate buffer pH 7.4, 298 K
Experimental: as §8, §9

[28] = ITC titration with D-mannose; details: 10 mM phosphate buffer pH 7.4, 298 K
Experimental: as §2, §3

[29] = ITC titration with uracil; details: Uracil (PBS) pH 7.4, 298 K
Experimental: as §8, §9

[30] = ITC titration with gluconate; details: Gluconate (from D-glucono-δ-lactone); 10 mM phosphate buffer pH 7.4, 298 K
Experimental: as §4

[31] = D-Glucose (DMEM cell culture), 10k MWCO, 10 mM phosphate buffer pH 7.4
[32] = D-Glucose (DMEM salt control), 10 mM phosphate buffer pH 7.4 with added salts
[33] = D-Glucose (Leibovitz’s L-15 cell culture), 10k MWCO, 10 mM phosphate buffer pH 7.4
[34] = D-Glucose (human serum), 10k MWCO, 10 mM phosphate buffer
[35] = D-Glucose, 10 mM phosphate buffer pH 7.4, 298 K
[36] = D-Cellobiose, 10 mM phosphate buffer pH 7.4, 298 K
[37] = Methyl β-D-Glucoside, 10 mM phosphate buffer pH 7.4, 298 K
[38] = 2-Deoxy-D-Glucose, 10 mM phosphate buffer pH 7.4, 298 K

SMILES: CCc1c2c(CC)c3c(CC)c1CNC(=O)Nc1ccc(C(=O)NC(CCC(=O)NC(CCC(=O)[O-])(CCC(=O)[O-])CCC(=O)[O-])(CCC(=O)NC(CCC(=O)[O-])(CCC(=O)[O-])CCC(=O)[O-])CCC(=O)NC(CCC(=O)[O-])(CCC(=O)[O-])CCC(=O)[O-])cc1NC(=O)NCc1c(CC)c(c(CC)c(c1CC)CNC(=O)Nc1cc(C(=O)NC(CCC(=O)NC(CCC(=O)[O-])(CCC(=O)[O-])CCC(=O)[O-])(CCC(=O)NC(CCC(=O)[O-])(CCC(=O)[O-])CCC(=O)[O-])CCC(=O)NC(CCC(=O)[O-])(CCC(=O)[O-])CCC(=O)[O-])ccc1NC(=O)NC3)CNC(=O)Nc1cc(C(=O)NC(CCC(=O)NC(CCC(=O)[O-])(CCC(=O)[O-])CCC(=O)[O-])(CCC(=O)NC(CCC(=O)[O-])(CCC(=O)[O-])CCC(=O)[O-])CCC(=O)NC(CCC(=O)[O-])(CCC(=O)[O-])CCC(=O)[O-])ccc1NC(=O)NC2.[Na+].[Na+].[Na+].[Na+].[Na+].[Na+].[Na+].[Na+].[Na+].[Na+].[Na+].[Na+].[Na+].[Na+].[Na+].[Na+].[Na+].[Na+].[Na+].[Na+].[Na+].[Na+].[Na+].[Na+].[Na+].[Na+].[Na+] [Receptor 1, Triethylbenzene Receptor]
- TΔS (Determined by ITC) [1, 31]: 16.2 kJ/mol
- ΔG (Determined by ITC) [1, 31]: -21.4 kJ/mol
- ΔH (Determined by ITC) [1, 31]: -5.2 kJ/mol
- TΔS (Determined by ITC) [1, 32]: 16.2 kJ/mol
- ΔG (Determined by ITC) [1, 32]: -21.2 kJ/mol
- ΔH (Determined by ITC) [1, 32]: -5.0 kJ/mol
- TΔS (Determined by ITC) [1, 33]: 17.0 kJ/mol
- ΔG (Determined by ITC) [1, 33]: -21.2 kJ/mol
- ΔH (Determined by ITC) [1, 33]: -4.2 kJ/mol
- TΔS (Determined by ITC) [1, 34]: 15.3 kJ/mol
- ΔG (Determined by ITC) [1, 34]: -19.4 kJ/mol
- ΔH (Determined by ITC) [1, 34]: -4.1 kJ/mol
- Ka (Determined by ITC) ([1]; D-Glucose pH 6 (PBS), 298 K): 17,300 ± 3.8%
- TΔS (Determined by ITC) ([1]; D-Glucose pH 6 (PBS), 298 K): 21.6 kJ/mol
- ΔG (Determined by ITC) ([1]; D-Glucose pH 6 (PBS), 298 K): -24.2 kJ/mol
- ΔH (Determined by ITC) ([1]; D-Glucose pH 6 (PBS), 298 K): -2.6 kJ/mol
- Ka (Determined by ITC) ([1]; D-Glucose pH 7 (PBS), 298 K): 17,800 ± 5.5%
- TΔS (Determined by ITC) ([1]; D-Glucose pH 7 (PBS), 298 K): 22.0 kJ/mol
- ΔG (Determined by ITC) ([1]; D-Glucose pH 7 (PBS), 298 K): -24.3 kJ/mol
- ΔH (Determined by ITC) ([1]; D-Glucose pH 7 (PBS), 298 K): -2.2 kJ/mol
- Ka (Determined by ITC) ([1]; D-Glucose pH 8 (PBS), 298 K): 18,300 ± 1.8%
- TΔS (Determined by ITC) ([1]; D-Glucose pH 8 (PBS), 298 K): 21.8 kJ/mol
- ΔG (Determined by ITC) ([1]; D-Glucose pH 8 (PBS), 298 K): -24.3 kJ/mol
- ΔH (Determined by ITC) ([1]; D-Glucose pH 8 (PBS), 298 K): -2.6 kJ/mol
- Ka (Determined by ITC) [1, 35]: 18,600 ± 14.3%
- TΔS (Determined by ITC) [1, 35]: 16.6 kJ/mol
- ΔG (Determined by ITC) [1, 35]: -24.4 kJ/mol
- ΔH (Determined by ITC) [1, 35]: -7.8 kJ/mol
- Ka by ITC, fit calculated with the supplied ITC software ([1]; D-glucose in 10 mM PBS buffer (pH 6)): 19,800 ± 1290 M^-1
- Ka by ITC, fit calculated with the supplied ITC software ([1]; D-glucose in 10 mM PBS buffer (pH 7.4)): 19,100 ± 1310 M^-1
- Ka by ITC, fit calculated with the supplied ITC software ([1]; D-glucose in 10 mM PBS buffer (pH 8)): 23,400 ± 1850 M^-1
- Ka by ITC, fit calculated with the supplied ITC software ([1]; glucose in H2O): 21,000 ± 2640 M^-1
- TΔS (Determined by ITC) [2]: 13.5 kJ/mol
- ΔG (Determined by ITC) [2]: -21.5 kJ/mol
- ΔH (Determined by ITC) [2]: -8.0 kJ/mol
- Ka (Determined by ITC) [3]: 0 M⁻¹
- TΔS (Determined by ITC) [4, 36]: -0.7 kJ/mol
- ΔG (Determined by ITC) [4, 36]: -8.5 kJ/mol
- ΔH (Determined by ITC) [4, 36]: -9.2 kJ/mol
- Ka by ITC, fit calculated with the supplied ITC software ([4]; cellobiose in H2O): 36.6 ± 2.5 M⁻¹
- TΔS (Determined by ITC) [5]: -6.5 kJ/mol
- ΔG (Determined by ITC) [5]: -21.3 kJ/mol
- ΔH (Determined by ITC) [5]: -27.8 kJ/mol
- TΔS (Determined by ITC) [6]: -2.4 kJ/mol
- ΔG (Determined by ITC) [6]: -22.1 kJ/mol
- Binding implied by 1H NMR spectra (no Ka determinable) [7]: binding with intermediate rate of exchange
- TΔS (Determined by ITC) [8, 37]: 21.2 kJ/mol
- ΔG (Determined by ITC) [8, 37]: -22.2 kJ/mol
- ΔH (Determined by ITC) [8, 37]: -3.2 kJ/mol
- Ka by ITC, fit calculated with the supplied ITC software ([8]; methyl-β-D-glucoside in H2O): 9120 ± 542 M⁻¹
- Ka (Determined by ITC) [9]: 0 M⁻¹
- TΔS (Determined by ITC) [10]: -9.5 kJ/mol
- ΔG (Determined by ITC) [10]: -10.6 kJ/mol
- ΔH (Determined by ITC) [10]: -20.0 kJ/mol
- Signals for bound α-D-glucose (ROESY) [11]: not observed
- Saturation of receptor on addition of 2 equivalents (0.2 mM) of D-glucose (1H NMR) ([12]; D2O with no added salts): did saturate the receptor
- Saturation of receptor on addition of 2 equivalents (0.2 mM) of D-glucose (1H NMR) ([12]; with MgSO4 (0.8 mM) and CaCl2 (1.8 mM), D2O, 10 mM phosphate buffer pH 7.4, 298 K): did not saturate the receptor
- TΔS (Determined by ITC) [13, 38]: 13.4 kJ/mol
- ΔG (Determined by ITC) [13, 38]: -16.3 kJ/mol
- ΔH (Determined by ITC) [13, 38]: -2.9 kJ/mol
- Ka by ITC, fit calculated with the supplied ITC software ([13]; 2-deoxy-D-glucose in H2O): 657 ± 90 M⁻¹
- TΔS (Determined by ITC) [14]: -9.7 kJ/mol
- ΔG (Determined by ITC) [14]: -13.3 kJ/mol
- ΔH (Determined by ITC) [14]: -23.0 kJ/mol
- Ka (Determined by ITC) [15]: 0 M⁻¹
- Ka (Determined by ITC) [16]: 0 M⁻¹
- Ka calculated at titration point (NMR) ([17]; [Guest]total 20 mM): 0.55 M⁻¹
- Ka calculated at titration point (NMR) ([17]; [Guest]total 39 mM): 29.0 M⁻¹
- Ka calculated at titration point (NMR) ([17]; [Guest]total 58 mM): 31.2 M⁻¹
- Ka calculated at titration point (NMR) ([17]; [Guest]total 96 mM): 29.4 M⁻¹
- Ka calculated at titration point (NMR) ([17]; [Guest]total 132 mM): 34.9 M⁻¹
- Ka calculated at titration point (NMR) ([17]; [Guest]total 167 mM): 81.5 M⁻¹
- Ka calculated at titration point (NMR) ([17]; [Guest]total 251 mM): 74.0 M⁻¹
- Ka calculated at titration point (NMR) ([17]; [Guest]total 329 mM): 386 M⁻¹
- Ka (Determined by ITC) [18]: 0 M⁻¹
- Ka (Determined by ITC) [19]: 0 M⁻¹
- Ka (Determined by ITC) [20]: 0 M⁻¹
- Ka (Determined by ITC) [21]: 0 M⁻¹
- Ka (Determined by ITC) [22]: 0 M⁻¹
- Ka (Determined by NMR) [23]: 7328 ± 7.4%
- TΔS (Determined by ITC) [24]: 4.2 kJ/mol
- ΔG (Determined by ITC) [24]: -12.9 kJ/mol
- ΔH (Determined by ITC) [24]: -8.8 kJ/mol
- Ka (Determined by ITC) [25]: 0 M⁻¹
- Ka (Determined by ITC) [26]: 0 M⁻¹
- Ka (Determined by ITC) [27]: 0 M⁻¹
- TΔS (Determined by ITC) [28]: 0.6 kJ/mol
- ΔG (Determined by ITC) [28]: -12.3 kJ/mol
- ΔH (Determined by ITC) [28]: -11.8 kJ/mol
- Ka (Determined by ITC) [29]: 0 M⁻¹
- Ka (Determined by ITC) [30]: 0 M⁻¹

Source: US20230365514A1, “MACROCYCLIC COMPOUNDS” (NOVO NORDISK RESEARCH CENTRE OXFORD LIMITED, priority 2017, published 2023)
